Assay results published in patent US20110188043A1, “METHOD AND APPARATUS FOR MONITORING PROCESSES IN LIVING CELLS” (Yissum, Research Development Company of The Hebrew …, priority 2007, published 2011).

Experiments:
[1] = system: Melanoma cells; assay: Time-lapse confocal imaging of fluorescently tagged-Tfn uptake; format: cell-based, human
Protocol: Melanoma cells were cultured to ˜50% confluence on glass bottom culture dishes (35 mm dish, 14 mm Microwell; MatTek, Co., MA, USA). Cells were first exposed to growth medium lacking serum for 3 hrs prior to the experiment, and then washed three times with internalization buffer (150 mM NaCl, 20 mM Hepes, pH 7.4, 1 mM CaCl2, 5 mM KCl, 1 mM MgCl2, 10 mM Glucose). Following the last wash, internalization buffer containing 0.1 μM sulforhodamine green (SRG) (Biotium, Hayward, Calif.) was added to the medium. Cells were imaged (FIG. 10A—confocal imaging of live cells performed simultaneously in the green and red channels, about 30 sec (designated time 0) after cell exposure to the ligand) with an Olympus FV-1000 confocal microscope equipped with an on-scope incubator (Life Image Services, Bazel, Switzerland), which controls temperature and humidity, and provides an atmosphere of 5% CO2. A 60×/NA=1.35 oil immersion objective was used. […] First, one plane of focus was acquired, and Rhodamine Red'-holo Tfn (5 μg/ml; Jackson ImmunoResearch) was introduced into the imaging buffer. Confocal images of both the SRG (Ex: 514 nm; Em: 535-565 nm) and Rhodamine Red-holo-Tfn (Ex: 543 nm; Em: 560-660 nm) were acquired from the same section every 10 or 20 sec. A similar protocol was used for Lissamine Rhodamine-apo-Tfn, except that the SRG was imaged using 488-nm excitation and a 505-525-nm emission filter. The FV1000 was equipped with the ZDC (Zero Drift Controller) option, to maintain the same focus plane throughout the entire period of imaging.
The images were processed using ImageJ [Rasband, W. S., ImageJ, U.S. National Institutes of Health, Bethesda, Md., USA, http://rsb.info.nih.gov/ij/, 1997-2007] to determine fluorescence levels within cells as follows: First the despeckle filter (essentially a median filter with a 3×3 kernel) was applied to remove point noise and the SRG image was used to determine the cell boundaries; then, the average fluorescence intensity inside the cells (F(t)intracellular) was divided by the average fluorescence intensity in a region of interest outside the cells (<F(t)>extracellular). This procedure was adopted based on the assumption that there is insignificant depletion of labeled Tfn in the medium, so that the fluorescence in the medium should remain constant.
Then, the fluorescence levels within the bounded area were determined in the red channels for each time frame. Background fluorescence levels measured before the addition of Rhodamine Red-Tfn were subtracted from values measured in the same channel during ligand introduction.

[2] = system: Human melanoma (MEL 1106) cells; assay: FTIR-SPR measurements of Tfn-induced SPR signal shifts in a cell monolayer on an Au-coated ZnS prism; format: cell-based; conditions: for SPR signal shift on cell exposure to ligand: 5 μg/ml of Tfn, cells on Au-coated ZnS prism; for change in the average refraction index of cells Δn: calculated as Δn=ΔR/S at 4425 cm^−1
Protocol: Surface plasmon (SP) was excited using Kretchmann's geometry as illustrated in FIG. 3A employing the Bruker FTIR spectrometer (Equinox 55—Bruker Optik GmbH, Ettlingen, Germany) equipped with a KBr beam splitter as mid-IR source, and a right-angle ZnS prism having a 20×40 mm base (ISP Optics, Inc., Irvington, N.Y, US) coated with an 18-nm-thick gold film (electron-beam evaporation). Cells were cultured on the gold surface, as described below. The prism and cells were attached to a flow chamber mounted on a goniometer, in such way that the cells on the gold-coated base faced the flow chamber's volume (0.5 ml). The flow chamber was filled with cell culture medium, resulting in direct contact between the medium and the gold layer, or cells cultured on that layer. The medium was passed through the chamber at a constant flow rate (5 μl/min) during the entire experiment, using a motorized bee syringe pump equipped with a variable speed controller. The temperature of the medium flowing through the chamber was controlled (±0.1° C.). The infrared light from the output window of the FTIR instrument passed through a collimator, consisting of a 1-mm diameter pinhole mounted between two gold coated off-axis parabolic mirrors, m1 and m2, with focal lengths of about 76.2 mm and 25.4 mm, respectively, along with a grid polarizer and an iris. The collimated beam (˜4 mm in diameter) was reflected from the ZnS prism and focused by an additional parabolic mirror, m3, onto a liquid-nitrogen-cooled MCT (HgCdTe) detector, mounted on the goniometer.
Human melanoma (MEL 1106) cells were cultured on a 10-cm dish in Dolbecco's modified Eagle's medium (D-MEM, Biological Industries, Israel), supplemented with 4.5 g/l D-glucose, 10% antibiotics, and 10% fetal calf serum, as previously described for HeLa cells [Ziblat et al., 2006]. These cells were used in the SPR experiments, and their culture on Au coated prisms was performed as follows: upon reaching 70% confluence, cells were detached from the dish by trypsin C (0.05% Trypsin/EDTA in Puck's saline A; Biological Industries, Israel) treatment, and brought to a cell density of about 1.8×10^5 cells/ml in complete growth medium. With reference to FIG. 7, three milliliters of cell suspension 29 were seeded on top of the Au-coated ZnS prism 27 mounted onto a home-made polycarbonate holder, such that the cell suspension 29 covered the entire prism's base 28. Cells were allowed to attach for at least 3 hrs in a CO2 incubator (5% CO2, 37° C., 90% humidity). Thereafter, growth medium (5 ml) was added and the prism 27 was placed in a CO2 incubator for an additional 2-3 days, until a uniform and nearly confluent monolayer of cells (above 70%; ˜30 cells per 1000 μm^2) covered the Au-surface.
In the initial phase of each experiment, cells cultured on an Au-coated prism were exposed to serum-free DMEM for 3 hours at […] for depleting the cells from internal pools of Tfn contributed by the serum. The prism with the cultured cells was then attached to the flow chamber, which was rapidly filled with pre-warmed (37° C.) minimal essential medium (MEM) containing Hank's salts (GIBCO), 20 mM Hepes, pH 7.2, and 5 μg/ml BSA (MEM-BSA). The temperature in the flow chamber was adjusted to 37° C.±0.1° C., unless otherwise indicated. Thereafter, the angle of incidence in the SPR configuration was set to θ=35.5°. […] These parameters were optimal, allowing maximal sensitivity (S=ΔR/Δn), and reasonable SP penetration depth/propagation length.
The reflectivity of the s-polarized beam was used as a background for subsequent measurements. The SPR signal is the ratio of the reflectivities obtained for the p-polarized and s-polarized beams. The FTIR-SPR set-up of the invention repeatedly measured the reflectivity spectra. This was done every 25 seconds with a 4-cm^−1 wavenumber resolution and with 16-scan averaging. The SPR measurements were carried out continuously for 15-20 minutes, until a stable SPR signal was recorded. […]

[3] = system: HeLa cells; assay: FTIR-SPR of cholesterol enrichment/depletion of the cell membrane; format: cell-based, human; conditions: λ=1.08 μm, 37° C.; mβCD-chol at t=0, mβCD at t=15 for 3 min
Excerpt: The penetration of cholesterol into the plasma membrane of the HeLa cells was studied with the FTIR-SPR technique of the invention (similar studies using SPR in the visible range were reported by Besenicar et al., [Biochimica et Biophysica Acta-Biomembranes, 177, 175 (2008).]. It is well-known that cholesterol enters mostly into the plasma membrane rather than into cytoplasm. Therefore, to achieve high sensitivity to membrane-related events, the near-infrared wavelength range was chosen, λsp=1÷1:08 μm, characterized by a relatively low SPR penetration depth.
The HeLa cells were grown on an SF-11 glass prism coated with 35-nm-thick gold film. The prism with the cells was mounted into a flow chamber and was equilibrated in growth medium for 5-7 minutes at 37° C. Then 10 mM of mfβCD-chol (methyl-beta-cyclodextrin loaded with cholesterol) was added, which is known to enrich the cells by cholesterol. The FTIR-SPR spectra was measured before and after adding the drugs. […] This corresponds to a refractive index increase because cholesterol has a higher refractive index than water. In contrast, when a similar chemical, mβCD, which is not loaded with cholesterol, was added (at t=15 for 3 min) to a growth solution the SPR is blue-shifted, which corresponds to a refractive index decrease. […]

[4] = system: human red blood cells (RBCs); assay: FTIR-SPR measurement of glucose uptake by erythrocyte suspension; format: cell-based; conditions: λ=4 μm, 22° C., erythrocyte suspension in PBS
Protocol: In the following section measurements of glucose uptake by erythrocyte suspension in the PBS medium are described. Briefly, fresh human red blood cells (RBCs) were washed four times in PBS by centrifugation. The supernatant and buffy coat cells were discarded and RBCs were resuspended in glucose-free PBS to yield ce=5% v/v. For complete glucose depletion, cells were incubated for 60 min at 22° C. in PBS. Then, RBCs were centrifuged and resuspended in fresh PBS containing the required concentrations of D-glucose supplemented with L-glucose, to keep the total glucose concentration (osmolarity) equal to 20 mM. The SPR measurements were performed at 22° C. to slow down cellular glycolysis. The measurements were performed using a ZnS prism coated with a 12-nm thick Au film. […] Although the sensitivity at this wavelength is low (FIG. 19A), the use of such a long wavelength here is mandatory in order to sense the processes inside erythrocytes. The average distance between the erythrocytes is Dece^1/3=17 μm. The surface plasmon propagation length, Lx=30 μm (FIG. 21), exceeds the distance between erythrocytes.

[5] = system: Melanoma 1106 cell; assay: FTIR-SPR of ferrotransferrin uptake with long-wavelength surface plasmon; format: cell-based, human; conditions: λ=2.54 μm
Excerpt: The FTIR-SPR technique of the invention was applied to study transferrin-induced clathrin-mediated endocytic processes that introduce Fe ions into the cell.
The same process was studied using a long-wavelength surface plasmon at λ=2.54 μm. Its penetration depth, δzd=1.2 μm (FIG. 20), is deep enough to penetrate the cells, although it senses mostly the cell periphery. […] The kinetics of the SPR reflectivity closely follows the fluorescence kinetics in the cell periphery (FIG. 27A), as expected. […] The obvious advantage of the SPR technique is that it is label-free. […] This rules out the possibility that the SPR shift results from accumulation of organic molecules in the cell (this would increase the refractive index). […] This is consistent with the biological picture of endocytosis that includes transferrin-induced vesicular transport.

## Rhodamine Red-holo-Tfn: Rhodamine Red tagged holo-Tfn (Jackson ImmunoResearch) used for fluorescence imaging [reference compound]
[1]; lower temperatures (30° C. vs 37° C.)
  ligand internalization rates (fluorescence): reduced ligand internalization rates

## apo-Tfn: Human apo-Tfn dialyzed against sodium citrate to remove possible iron traces; tagged with Lissamine Rhodamine for imaging
[1]; 37° C.
  accumulation of tagged Tfn fluorescence within the cells: accumulated within the cells at slower rates
[2]; 37° C.
  SPR signal shift on cell exposure to ligand: small SPR signal shifts
[2]
  change in the average refraction index of cells Δn: smaller than −1*10^−4

## CN(C)CCCN1c2ccccc2Sc2ccc(Cl)cc21 [CPZ, Chlorpromazine, reference compound]
[1]; CPZ treatment followed by 90 min of drug washout, 37° C.
  effect on rate of holo-Tfn uptake into the cells (fluorescence): significantly decreased the rate of holo-Tfn uptake
[2]; 100 μM CPZ in MEM/BSA, 37° C.
  SPR signal shift immediately after cell exposure to the drug: sizeable shift of the SPR signal towards shorter wavelengths
[2]; 100 μM CPZ, then approximately 90 min washout, compared with untreated cells
  effect on holo-Tfn-induced SPR signal shifts: diminished SPR signal shifts
[2]; CPZ treatment per se
  blue shift in the SPR signal relative to that induced by Tfn: 10 times
[2]; CPZ washout with plain MEM/BSA
  washout time after which a steady SPR signal was measured: ~30 min
[2]
  SPR signal shift on removal (washout) with plain MEM/BSA: ongoing decrease

## methyl-β-cyclodextrin [mβCD, reference compound]
[3]
  SPR shift after addition to growth medium: blue-shifted
[2]; mβCD 3 mM for 15 min at 37° C., rinsed, then holo-Tfn
  effect on holo-Tfn-induced SPR signal shift (cholesterol depletion / replenishment): diminished compared with untreated cells

## O=C[C@H](O)[C@@H](O)[C@H](O)[C@H](O)CO [D-glucose]
[4]
  reflectivity in the SPR regime upon addition: reflectivity in the SPR regime rapidly increases with time, until saturation is reached

## holo-Tfn: Human apo-Tfn (transferrin) loaded with iron, which converts it to holo-Tfn
[5]
  SPR shift upon introduction into the solution: blue-shifted
[1]; holo-Ft tagged with Rhodamine Red, Melanoma 1106 cell
  cell fluorescence intensity over time: fluorescence intensity increases and then achieves saturation
[2]; 37° C.
  SPR signal shift on cell exposure to ligand: time-dependent shifts of the SPR minimum towards shorter wavelengths
  Tfn-induced SPR shifts: maximal shifts
[2]; 19° C.
  Tfn-induced SPR shifts: diminished SPR shifts
[2]; 30° C.
  Tfn-induced SPR shifts: larger SPR shifts
[2]
  change in the average refraction index of cells Δn: −4*10^−4
  SPR signal shift on removal (washout) with plain MEM/BSA: red-shift in the SPR signal
[2]; holo-Tfn, 37° C.
  time over which the SPR signal increased before levelling off: 2 to 3 min
